This is an account of results in patent US20100256230A1, “1-BUTANE ACID DERIVATIVES, PHARMACEUTICAL COMPOSITIONS CONTAINING SAID DERIVATIVES AND THE USE THEREOF” (SCHEBO BIOTECH AG, priority 2001, published 2010).

The test system of one assay is Novikoff hepatoma cells. Nature of the assay: Proliferation inhibition of Novikoff hepatoma cells (cell count after four days of cultivation). The format is cell-based. The settings on record: Novikoff hepatoma cells, 100,000 cells seeded per 25 cm2 bottle, counted after four days of cultivation, compared to control without compound; FIGS. 1 and 2. The procedure: The cell density was measured after four days of cultivation.
The cell density was measured after 4 days of cultivation.
The Novikoff hepatoma cells utilized in this example were obtained from the tumor bank of the Deutsches Krebsforschungszentrum, Heidelberg (Cancer Research 1951, 17, 1010). 100,000 cells each are seeded per 25 cm^2 cultivation bottle. The substance according to Example 1 of the invention, dissolved in a solvent suitable for use in cell cultures, for instance water, diluted ethanol, dimethylsulfoxide or the like, was added in an increasing concentration to the culture medium, e.g. L-cycloserine (compound 16) or dehydrothreonine (compound 2) in a concentration range of 80 μM-5,000 μM; carbomethoxypropionyl cyanide (compound 13) in a range of 100 μM-300 μM. After four days of cultivation, the number of cells per bottle was counted. The results are shown in FIGS. 1 and 2, and a dose dependence of the proliferation inhibition compared to the control sample without addition of a compound according to the invention can be seen.

Assay [1] deals with glycolysis of Novikoff-Zellen hepatoma cells. Nature of the assay: Inhibition of glycolysis of Novikoff cells (lactate produced for glucose consumed). Format: cell-based.

Regarding `N[C@H]1CONC1=O` [L-glycoserine, L-cycloserine], in the assay on Novikoff hepatoma cells, the “inhibition of tumor cell growth (proliferation inhibition, cell density)” value is reported as “dose-dependent inhibition of tumor cell growth”.

Take `COC(=O)CCC(=O)C#N` [carbomethoxypropionyl cyanide]: in the assay with Novikoff hepatoma cells, the “inhibition of tumor cell growth (proliferation inhibition, cell density)” value was “dose-dependent inhibition of tumor cell growth”. The “inhibition of glycolysis flow, lactate produced for glucose consumed” value in assay [1] (FIG. 3) is reported as “massively inhibits the glycolysis flow”; in assay [1] (FIG. 3, listed as CMPC), “inhibition of glycolysis”.
